Source: US20080125424A1, “Derivatives of urea and related diamines, methods for their manufacture, and uses therefor” (priority 2006, published 2008)
Counter-ions that a name gives are not always drawn.

Target: T1, human parathyroid cell Ca2+ receptor (hPCaR) (Homo sapiens, UniProt P41180)
T1 construct: expressed in transfected cells
T1 sequence (P41180 20-1078): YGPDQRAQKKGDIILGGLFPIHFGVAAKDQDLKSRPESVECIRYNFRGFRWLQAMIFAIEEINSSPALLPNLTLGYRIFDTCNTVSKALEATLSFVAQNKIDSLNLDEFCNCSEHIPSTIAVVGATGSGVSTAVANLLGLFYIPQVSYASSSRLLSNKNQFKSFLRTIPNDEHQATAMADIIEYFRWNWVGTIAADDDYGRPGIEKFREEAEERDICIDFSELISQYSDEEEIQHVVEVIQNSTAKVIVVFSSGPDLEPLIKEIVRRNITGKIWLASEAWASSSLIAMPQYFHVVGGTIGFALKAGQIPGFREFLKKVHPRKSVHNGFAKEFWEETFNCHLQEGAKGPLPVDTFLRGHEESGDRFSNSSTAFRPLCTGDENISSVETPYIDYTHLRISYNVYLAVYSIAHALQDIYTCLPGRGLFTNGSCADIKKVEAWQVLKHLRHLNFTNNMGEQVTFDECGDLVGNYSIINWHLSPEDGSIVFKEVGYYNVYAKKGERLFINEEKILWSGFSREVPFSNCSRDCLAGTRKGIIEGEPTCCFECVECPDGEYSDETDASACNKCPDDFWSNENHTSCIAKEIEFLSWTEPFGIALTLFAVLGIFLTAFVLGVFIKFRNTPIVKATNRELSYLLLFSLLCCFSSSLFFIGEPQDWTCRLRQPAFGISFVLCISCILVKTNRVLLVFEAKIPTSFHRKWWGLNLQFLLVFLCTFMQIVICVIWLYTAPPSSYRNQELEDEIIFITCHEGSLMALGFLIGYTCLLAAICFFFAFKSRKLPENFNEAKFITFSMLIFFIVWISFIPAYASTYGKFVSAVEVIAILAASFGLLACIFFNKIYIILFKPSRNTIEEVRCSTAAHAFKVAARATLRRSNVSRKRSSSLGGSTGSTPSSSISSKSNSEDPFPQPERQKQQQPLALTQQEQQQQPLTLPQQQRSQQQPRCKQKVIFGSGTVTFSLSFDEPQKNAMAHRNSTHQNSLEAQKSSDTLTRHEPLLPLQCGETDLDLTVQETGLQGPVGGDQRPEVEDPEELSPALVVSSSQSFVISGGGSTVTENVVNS
Test: [Ca2+]i fluorescence assay in HEK 293 4.0-7 cells expressing hPCaR
Assay type: cell-based
Details: buffer with 1 mM CaCl2
Experimental: The activities of the compounds of the present invention on calcium receptors were measured. In one embodiment, the measurement was performed in accordance with the method described in Example 4 of Nemeth et al., PCT/US95/13704 (International Publication No. WO96/12697) herein incorporated by reference.
A 4.0-kb NotI-HindIII fragment of the human parathyroid cell Ca^2+ receptor (hPCaR) cDNA was subcloned into the mammalian expression vector pCEP4 (Invitrogen) containing the hygromycin-resistant gene as a selectable marker. This plasmid was transfected into HEK 293 cells by calcium phosphate precipitation. Transfected cells were grown in Dulbecco's modified Eagle's medium containing 10% fetal bovine serum and hygromycin (200 μg/mL). Hygromycin-resistant colonies were subcloned and assayed for hPCaR mRNA by solution hybridization using a ^32P-labeled RNA probe complementary to the (4.0 kb) hPCaR sequence (Garrett, et al., J. Biol. Chem. 270, 12919-12925 (1995)). Clone 7 was used to assess the effects of compounds on [Ca^2+]i. This stably transfected cell line was termed HEK 293 4.0-7. For measurements of [Ca^2+]i, the cells were recovered from tissue culture flasks by brief treatment with Versene (Invitrogen; Containing 0.2 g/L EDTA.4Na in phosphate-buffered saline) and then seeded in collagen coated 384-well plates (BD Biosciences) at 20K cells per well in the growth media (same as above). Cells were grown in 37c TC incubator overnight. Then, the media was discarded and cells were loaded with 1× dye from Ca^2+ Assay Kit I (BD Biosciences) in parathyroid cell buffer (126 mM NaCl, 4 mM KCl, 1 mM MgSO4, 0.7 mM K2HPO4/KH2PO4, 20 mM HEPES.NaOH (pH 7.45)) containing 0.5% BSA and 1 mM CaCl2. Cells were loaded at room temperature for 90 minutes. Each test compound was added to the cells and the fluorescence was recorded by using excitation and emission wavelengths of 485 and 530 nm, respectively.

With `O=C(CCN(CCC(c1ccccc1)c1ccccc1)C(=O)Nc1nc2ccccc2s1)NCc1ccccc1` [Example 117, 3-(benzo[d]thiazol-2-yl)-1-(3-(benzylamino)-3-oxopropyl)-1-(3,3-diphenylpropyl)urea] the EC50 was 100 to 1000 nM.

`O=C(CCN(CCC(c1ccccc1)c1ccccc1)C(=O)Nc1nc2ccccc2s1)N1CCNCC1` [Example 106, 3-(benzo[d]thiazol-2-yl)-1-(3,3-diphenylpropyl)-1-(3-oxo-3-(piperazin-1-yl)propyl)urea] gave an EC50 of 100 to 1000 nM.

`CN(C)S(=O)(=O)NCCN(CCC(c1ccccc1)c1ccccc1)C(=O)Nc1nc2ccccc2s1` [Example 174, N,N-dimethylamino-sulfonyl-{2-[3-benzothiazol-2-yl-1-(3,3-diphenyl-propyl)-ureido]-ethyl}-amide] was tested, and the EC50 was 100 to 1000 nM.

Work on `CN(C)CC(C)(C)CNCCN(CCC(c1ccccc1)c1ccccc1)C(=O)Nc1nc2ccccc2s1` [Example 150, 3-Benzothiazol-2-yl-1-[2-(3-dimethylamino-2,2-dimethyl-propylamino)-ethyl]-1-(3,3-diphenyl-propyl)-urea trihydrochloride] yielded an EC50 of 1000 to 5000 nM.

With `CCOC(=O)CCCN(CCC(c1ccccc1)c1ccccc1)C(=O)Nc1nc2ccccc2s1` [Example 116, ethyl 4-(3-(benzo[d]thiazol-2-yl)-1-(3,3-diphenylpropyl)ureido)butanoate] the EC50 was 100 to 1000 nM.

Compound `O=C(NCCCCN(CCC(c1ccccc1)c1ccccc1)C(=O)Nc1nc2ccccc2s1)C1CCCCN1` (stereo not shown) [Example 128, 3-(benzo[d]thiazol-2-yl)-1-(3,3-diphenylpropyl)-1-(4-(piperidine-2-carboxamido)butyl)urea] has an EC50 of under 100 nM.

Compound `O=C(CCN(CCC(c1ccccc1)c1ccccc1)C(=O)Nc1nc2ccccc2s1)NC1CCCCC1` [Example 112, 3-(benzo[d]thiazol-2-yl)-1-(3-(cyclohexylamino)-3-oxopropyl)-1-(3,3-diphenylpropyl)urea] has an EC50 of 100 to 1000 nM.

With `O=C(NCCN(CCC(c1ccccc1)c1ccccc1)C(=O)Nc1nc2ccccc2s1)C1CCCNC1` (stereo not shown) [Example 129, 3-(benzo[d]thiazol-2-yl)-1-(3,3-diphenylpropyl)-1-(2-(piperidine-3-carboxamido)ethyl)urea] the EC50 was under 100 nM.

`CN(CCN(CCC(c1ccccc1)c1ccccc1)C(=O)Nc1nc(-c2ccccc2)cs1)C1CCCCC1` [Example 164, 1-[2-(Cyclohexyl-methyl-amino)-ethyl]-1-(3,3-diphenyl-propyl)-3-(4-phenyl-thiazol-2-yl)-urea] was tested, and the EC50 was 100 to 1000 nM.

In the case of `CN(C)C(=O)CCN(CCC(c1ccccc1)c1ccccc1)C(=O)Nc1nc2ccccc2s1` [Example 107, 3-(benzo[d]thiazol-2-yl)-1-(3-(dimethylamino)-3-oxopropyl)-1-(3,3-diphenylpropyl)urea], the EC50 is reported as 100 to 1000 nM.

`C[C@H]1CN(C(=O)CCCN(CCC(c2ccccc2)c2ccccc2)C(=O)Nc2nc(-c3ccccc3)cs2)CCN1` [Example 90, (S)-1-(3,3-diphenylpropyl)-1-(4-(3-methylpiperazin-1-yl)-4-oxobutyl)-3-(4-phenylthiazol-2-yl)urea] showed an EC50 of 100 to 1000 nM.

`O=C(CCN(CCC(c1ccccc1)c1ccccc1)C(=O)Nc1nc(-c2ccccc2)cs1)N[C@@H]1CCCNC1` [Example 102, (R)-1-(3,3-diphenylpropyl)-1-(3-oxo-3-(piperidin-3-ylamino)propyl)-3-(4-phenylthiazol-2-yl)urea] showed an EC50 of 100 to 1000 nM.

Work on `O=C(Nc1nc2ccccc2s1)N(CCNC1CCNCC1)CCC(c1ccccc1)c1ccccc1` [Example 143, 3-(benzo[d]thiazol-2-yl)-1-(3,3-diphenylpropyl)-1-(2-(piperidin-4-ylamino)ethyl)urea] yielded an EC50 of under 100 nM.

For `CC1OCCC1NCCN(CCC(c1ccccc1)c1ccccc1)C(=O)Nc1nc2ccccc2s1` (stereo not shown) [Example 157, 3-Benzothiazol-2-yl-1-(3,3-diphenyl-propyl)-1-[2-(2-methyl-tetrahydro-furan-3-ylamino)-ethyl]-urea], the EC50 was under 100 nM.

Work on `CS(=O)(=O)Nc1ccc(-c2csc(NC(=O)N(CCNC(=O)C3CCCNC3)CCC(c3ccccc3)c3ccccc3)n2)cc1` (stereo not shown) [Example 130, 1-(3,3-diphenylpropyl)-3-(4-(4-(methylsulfonamido)phenyl)thiazol-2-yl)-1-(2-(piperidine-3-carboxamido)ethyl)urea] yielded an EC50 of under 100 nM.

Compound `C[C@@H]1CNCCN1C(=O)CCN(CCC(c1ccccc1)c1ccccc1)C(=O)Nc1nc2ccccc2s1` [Example 120, (R)-3-(benzo[d]thiazol-2-yl)-1-(3,3-diphenylpropyl)-1-(3-(2-methylpiperazin-1-yl)-3-oxopropyl)urea] has an EC50 of 1000 to 5000 nM.

`NC(=O)CCN(CCC(c1ccccc1)c1ccccc1)C(=O)Nc1nc(-c2ccccc2)c(Cl)s1` [Example 110, 1-(3-amino-3-oxopropyl)-3-(5-chloro-4-phenylthiazol-2-yl)-1-(3,3-diphenylpropyl)urea] showed an EC50 of 100 to 1000 nM.

`CC(C)(C)OC(=O)N1CCN(C(=O)CCCN(CCC(c2ccccc2)c2ccccc2)C(=O)Nc2nc(-c3ccccc3)cs2)CC1` [Example 96, tert-butyl 4-(4-(1-(3,3-diphenylpropyl)-3-(4-phenylthiazol-2-yl)ureido)butanoyl)piperazine-1-carboxylate] gave an EC50 of 100 to 1000 nM.

Compound `CS(=O)(=O)Nc1ccc(-c2nc(NC(=O)N(CCC(=O)O)CCC(c3ccccc3)c3ccccc3)sc2Cl)cc1` [Example 98, 3-(3-(5-chloro-4-(4-(methylsulfonamido)phenyl)thiazol-2-yl)-1-(3,3-diphenylpropyl)ureido)propanoic acid] has an EC50 of 100 to 1000 nM.

For `C[C@@H]1CNCCN1C(=O)CCCN(CCC(c1ccccc1)c1ccccc1)C(=O)Nc1nc(-c2ccccc2)cs1` [Example 91, (R)-1-(3,3-diphenylpropyl)-1-(4-(2-methylpiperazin-1-yl)-4-oxobutyl)-3-(4-phenylthiazol-2-yl)urea], the EC50 was 100 to 1000 nM.

For `O=C1CC[C@H](NCCN(CCC(c2ccccc2)c2ccccc2)C(=O)Nc2nc(-c3ccccc3)c(Cl)s2)CN1` [Example 142, (S)-3-(5-chloro-4-phenylthiazol-2-yl)-1-(3,3-diphenylpropyl)-1-(2-(6-oxopiperidin-3-ylamino)ethyl)urea], the EC50 was under 100 nM.

With `CS(=O)(=O)Nc1ccc(-c2nc(NC(=O)NCCC(c3ccccc3)c3ccccc3)sc2Cl)cc1` [Example 176, 1-(5-chloro-4-(4-(methylsulfonamido)phenyl)thiazol-2-yl)-3-(3,3-diphenylpropyl)urea] the EC50 was 100 to 1000 nM.

With `CC(CN(CCC(c1ccccc1)c1ccccc1)C(=O)Nc1nc(-c2ccccc2)cs1)C(=O)O` (stereo not shown) [Example 69, 3-(1-(3,3-diphenylpropyl)-3-(4-phenylthiazol-2-yl)ureido)-2-methylpropanoic acid] the EC50 was under 100 nM.

`O=C(O)CCCN(CCC(c1ccccc1)c1ccccc1)C(=O)Nc1nc(-c2ccccc2)cs1` [Example 111, 4-(1-(3,3-diphenylpropyl)-3-(4-phenylthiazol-2-yl)ureido)butanoic acid] gave an EC50 of 100 to 1000 nM.

For `CS(=O)(=O)Nc1ccc(-c2nc(NC(=O)N(CCN[C@@H]3CCCNC3)CCC(c3ccccc3)c3ccccc3)sc2Cl)cc1` [Example 140, (R)-3-(5-chloro-4-(4-(methylsulfonamido)phenyl)thiazol-2-yl)-1-(3,3-diphenylpropyl)-1-(2-(piperidin-3-ylamino)ethyl)urea], the EC50 was under 100 nM.
